Assay results taken from the supplement of paper PMC11208160.

Test: recombinant barcode read abundance after kanamycin selection (control-corrected) (log10(CPM+1)); higher = more efficient recombination; sequences stand for … in AGTGCAGAGAAAATCGGCCAGTTTTCTCTGCCTGCAGTCCGCATGCCGT…ATTTATGCAGCGGACTGCCTTTCTCCCAAAGTGATAAACCGGACAGTATCATGGACCGGTTTTCCCGGTAATCCGTATTTGCAAGGTTGGTTTCACT; site = the 11-nt target
How it was run: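 Each value is log10(CPM+1). It describes recombination efficiency, taken as averaged, control-corrected counts per million of barcodes at recombinant junctions. The pooled E. coli library paired targets with IS621 bridge RNA target-binding loops, was co-electroporated with a donor plasmid, and was plated twice on chloramphenicol/ampicillin LB agar (control) and twice on chloramphenicol/ampicillin/kanamycin containing 0.1 mM IPTG.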

Sequence	recombinant barcode read abundance (log10)
GAGTCCATGTGGGTTCTAACCTGTTGCGTAG [GAGTCCACTAC_LTGcore_TG_RTGcore_CT] (site GAGTCCACTAC) (LTG core: TG, RTG core: CT)	0.0936
GAGTCCTAGTGGGTTCTAACCTGTTGCCTCT [GAGTCCTCTAG_LTGcore_AG_RTGcore_AG] (site GAGTCCTCTAG) (LTG core: AG, RTG core: AG)	0.0613
GAGTCCTCTTGGGTTCTAACCTGTTGCCTAC [GAGTCCTCTAG_LTGcore_CT_RTGcore_GT] (site GAGTCCTCTAG) (LTG core: CT, RTG core: GT)	1.02
GAGTCCTCTTGGGTTCTAACCTGTTGCCTCT [GAGTCCTCTAG_LTGcore_CT_RTGcore_AG] (site GAGTCCTCTAG) (LTG core: CT, RTG core: AG)	1.65
GAGTCCTCTTGGGTTCTAACCTGTTGCCTGG [GAGTCCTCTAG_LTGcore_CT_RTGcore_CC] (site GAGTCCTCTAG) (LTG core: CT, RTG core: CC)	1.39
GAGTCCTCTTGGGTTCTAACCTGTTGCCTTG [GAGTCCTCTAG_LTGcore_CT_RTGcore_CA] (site GAGTCCTCTAG) (LTG core: CT, RTG core: CA)	0.753
GAGTCCTGATGGGTTCTAACCTGTTGCCTAG [GAGTCCTCTAG_LTGcore_GA_RTGcore_CT] (site GAGTCCTCTAG) (LTG core: GA, RTG core: CT)	0.62
GAGTCCTGATGGGTTCTAACCTGTTGCCTTC [GAGTCCTCTAG_LTGcore_GA_RTGcore_GA] (site GAGTCCTCTAG) (LTG core: GA, RTG core: GA)	0.149
GAGTCCTGGTGGGTTCTAACCTGTTGCCTCC [GAGTCCTCTAG_LTGcore_GG_RTGcore_GG] (site GAGTCCTCTAG) (LTG core: GG, RTG core: GG)	0.0289
GAGTCCTTTTGGGTTCTAACCTGTTGCCTAA [GAGTCCTCTAG_LTGcore_TT_RTGcore_TT] (site GAGTCCTCTAG) (LTG core: TT, RTG core: TT)	0.219
GAGTCCTTTTGGGTTCTAACCTGTTGCCTAG [GAGTCCTCTAG_LTGcore_TT_RTGcore_CT] (site GAGTCCTCTAG) (LTG core: TT, RTG core: CT)	0.153
GCGCGACAGTGGGTTCTAACCTGTTGCTTAG [GCGCGACCTAA_LTGcore_AG_RTGcore_CT] (site GCGCGACCTAA) (LTG core: AG, RTG core: CT)	0.642
GCGCGACCTTGGGTTCTAACCTGTTGCTTAC [GCGCGACCTAA_LTGcore_CT_RTGcore_GT] (site GCGCGACCTAA) (LTG core: CT, RTG core: GT)	0.23
GCGCGACCTTGGGTTCTAACCTGTTGCTTCC [GCGCGACCTAA_LTGcore_CT_RTGcore_GG] (site GCGCGACCTAA) (LTG core: CT, RTG core: GG)	0.0108
GCGCGACCTTGGGTTCTAACCTGTTGCTTCT [GCGCGACCTAA_LTGcore_CT_RTGcore_AG] (site GCGCGACCTAA) (LTG core: CT, RTG core: AG)	0.345
GCGCGACCTTGGGTTCTAACCTGTTGCTTGA [GCGCGACCTAA_LTGcore_CT_RTGcore_TC] (site GCGCGACCTAA) (LTG core: CT, RTG core: TC)	0.0329
GCGCGACGCTGGGTTCTAACCTGTTGCTTGC [GCGCGACCTAA_LTGcore_GC_RTGcore_GC] (site GCGCGACCTAA) (LTG core: GC, RTG core: GC)	0.0645
GCGCGACGTTGGGTTCTAACCTGTTGCTTAC [GCGCGACCTAA_LTGcore_GT_RTGcore_GT] (site GCGCGACCTAA) (LTG core: GT, RTG core: GT)	0.0144
GCGCGACTATGGGTTCTAACCTGTTGCTTAG [GCGCGACCTAA_LTGcore_TA_RTGcore_CT] (site GCGCGACCTAA) (LTG core: TA, RTG core: CT)	0.038
GCGGGACACTGGGTTCTAACCTGTTGCCTGT [GCGGGACCTAG_LTGcore_AC_RTGcore_AC] (site GCGGGACCTAG) (LTG core: AC, RTG core: AC)	0
GCGGGACAGTGGGTTCTAACCTGTTGCCTCT [GCGGGACCTAG_LTGcore_AG_RTGcore_AG] (site GCGGGACCTAG) (LTG core: AG, RTG core: AG)	0
GCGGGACCCTGGGTTCTAACCTGTTGCCTGG [GCGGGACCTAG_LTGcore_CC_RTGcore_CC] (site GCGGGACCTAG) (LTG core: CC, RTG core: CC)	1.52
GCGGGACGCTGGGTTCTAACCTGTTGCCTGC [GCGGGACCTAG_LTGcore_GC_RTGcore_GC] (site GCGGGACCTAG) (LTG core: GC, RTG core: GC)	0.0844

Sequence	recombinant barcode read abundance (log10)
GCGGGACGGTGGGTTCTAACCTGTTGCCTCC [GCGGGACCTAG_LTGcore_GG_RTGcore_GG] (site GCGGGACCTAG) (LTG core: GG, RTG core: GG)	0.182
GGACACCAGTGGGTTCTAACCTGTTGCCTAG [GGACACCCTAG_LTGcore_AG_RTGcore_CT] (site GGACACCCTAG) (LTG core: AG, RTG core: CT)	0.143
GGACACCAGTGGGTTCTAACCTGTTGCCTCT [GGACACCCTAG_LTGcore_AG_RTGcore_AG] (site GGACACCCTAG) (LTG core: AG, RTG core: AG)	0.0138
GGACACCCGTGGGTTCTAACCTGTTGCCTAG [GGACACCCTAG_LTGcore_CG_RTGcore_CT] (site GGACACCCTAG) (LTG core: CG, RTG core: CT)	1.2
GGACACCCTTGGGTTCTAACCTGTTGCCTAC [GGACACCCTAG_LTGcore_CT_RTGcore_GT] (site GGACACCCTAG) (LTG core: CT, RTG core: GT)	1.33
GGACACCCTTGGGTTCTAACCTGTTGCCTAG [GGACACCCTAG_LTGcore_CT_RTGcore_CT] (site GGACACCCTAG) (LTG core: CT, RTG core: CT)	2.43
GGACACCCTTGGGTTCTAACCTGTTGCCTTC [GGACACCCTAG_LTGcore_CT_RTGcore_GA] (site GGACACCCTAG) (LTG core: CT, RTG core: GA)	0.732
GGACACCCTTGGGTTCTAACCTGTTGCCTTG [GGACACCCTAG_LTGcore_CT_RTGcore_CA] (site GGACACCCTAG) (LTG core: CT, RTG core: CA)	1.32
GGACACCTCTGGGTTCTAACCTGTTGCCTAG [GGACACCCTAG_LTGcore_TC_RTGcore_CT] (site GGACACCCTAG) (LTG core: TC, RTG core: CT)	0.117
GGCTCCCATTGGGTTCTAACCTGTTGCGGAT [GGCTCCCCTCC_LTGcore_AT_RTGcore_AT] (site GGCTCCCCTCC) (LTG core: AT, RTG core: AT)	0.138
GGCTCCCCCTGGGTTCTAACCTGTTGCGGGG [GGCTCCCCTCC_LTGcore_CC_RTGcore_CC] (site GGCTCCCCTCC) (LTG core: CC, RTG core: CC)	0.0622
GGCTCCCCGTGGGTTCTAACCTGTTGCGGAG [GGCTCCCCTCC_LTGcore_CG_RTGcore_CT] (site GGCTCCCCTCC) (LTG core: CG, RTG core: CT)	0.116
GGCTCCCCGTGGGTTCTAACCTGTTGCGGCG [GGCTCCCCTCC_LTGcore_CG_RTGcore_CG] (site GGCTCCCCTCC) (LTG core: CG, RTG core: CG)	0.0989
GGCTCCCCTTGGGTTCTAACCTGTTGCGGAG [GGCTCCCCTCC_LTGcore_CT_RTGcore_CT] (site GGCTCCCCTCC) (LTG core: CT, RTG core: CT)	0.248
GGCTCCCCTTGGGTTCTAACCTGTTGCGGCG [GGCTCCCCTCC_LTGcore_CT_RTGcore_CG] (site GGCTCCCCTCC) (LTG core: CT, RTG core: CG)	0.0875
GGCTCCCCTTGGGTTCTAACCTGTTGCGGGG [GGCTCCCCTCC_LTGcore_CT_RTGcore_CC] (site GGCTCCCCTCC) (LTG core: CT, RTG core: CC)	0.0955
GGCTCCCCTTGGGTTCTAACCTGTTGCGGTT [GGCTCCCCTCC_LTGcore_CT_RTGcore_AA] (site GGCTCCCCTCC) (LTG core: CT, RTG core: AA)	0.285
GGCTCCCGCTGGGTTCTAACCTGTTGCGGGC [GGCTCCCCTCC_LTGcore_GC_RTGcore_GC] (site GGCTCCCCTCC) (LTG core: GC, RTG core: GC)	0.0637
GGCTCCCGTTGGGTTCTAACCTGTTGCGGAG [GGCTCCCCTCC_LTGcore_GT_RTGcore_CT] (site GGCTCCCCTCC) (LTG core: GT, RTG core: CT)	0.546
GGCTCCCTGTGGGTTCTAACCTGTTGCGGCA [GGCTCCCCTCC_LTGcore_TG_RTGcore_TG] (site GGCTCCCCTCC) (LTG core: TG, RTG core: TG)	0.234
GGGAGCCAATGGGTTCTAACCTGTTGCTGTT [GGGAGCCCTCA_LTGcore_AA_RTGcore_AA] (site GGGAGCCCTCA) (LTG core: AA, RTG core: AA)	0.427
GGGAGCCCATGGGTTCTAACCTGTTGCTGAG [GGGAGCCCTCA_LTGcore_CA_RTGcore_CT] (site GGGAGCCCTCA) (LTG core: CA, RTG core: CT)	1.06
